Data on 1 substance can be found in patent US11104689B2, “Influenza virus replication inhibitor and use thereof” (SUNSHINE LAKE PHARMA CO., LTD., priority 2017, dated 2021).

pEC50: −log10 of the molar value.

Data set [1] deals with influenza virus (A/Weiss/43(H1N1)). As to the kind of experiment: Cytopathic effect assay (CPE assay), antiviral activity. The class given is cell-based. As to conditions: MDCK cells, CPE inhibition, CCK-8; read-out: EC50 against influenza virus (A/Weiss/43(H1N1)) in vitro.
The test system of the next data set is MDCK cells. As to the kind of experiment: Cytotoxicity test group of the CPE assay (no virus added, CCK-8 kit). The class given is cell-based. As for the experimental part: Experimental Procedures: MDCK cells were seeded in a 384-well plate with 2000 cells per wells, which were incubated overnight at 37° C., 5% CO2; The culture medium was changed to the fresh culture solution containing different concentrations of the compound and virus H1N1 A/Weiss/43 at a multiplicity of infection to yield 80-95% CPE on the second day. The test compound was serially diluted from the highest concentration of 100 nM in 1:3 dilutions to give 8 concentrations: 100 nM, 33.33 nM, 11.11 nM, 3.70 nM, 1.23 nM, 0.41 nM, 0.14 nM, 0.05 nM. At the same time, a non-medicated virus control group and a non-medicated cell control group free of virus were set up. No virus was added in the cytotoxicity test group but medium was added for replacement. Each group was set in duplicate, and incubated at 37° C. in 5% CO2. The cell activity was measured according to the CCK-8 kit (source: Shanghai Liji Biotechnology Co., Ltd. #D3100L4057) and the data would be used to calculate the antiviral and cytotoxicity of the compound. Data were analyzed by GraphPad Prism, CPE inhibition rate was calculated, and the EC50 was obtained according to the fitted curve. CPE inhibition rate=(absorbance of dosing hole-absorbance of virus control well)/(absorbance of cell control well-virus control well)×100%
A general note: Formazan colour is commonly taken as a measure of viable cells.

As a reminder, the CC50 is the concentration that lowers cell viability or growth by half. “(12aR)-12-((8R)-4,5-difluoro-2-phenyl-8H-dibenzo[3,4:6,7]cyclohept[1,2-b]thiophen-8-yl)-7-hydroxy-3,4,12,12a-tetrahydro-1H-[1,4]oxazino[3,4-c]pyrido[2,1-f] [1,2,4] triazine-6,8-dione and (12aS)-12-((8S)-4,5-difluoro-2-phenyl-8H-dibenzo[3,4:6,7]cyclohept[1,2-b]thiophen-8-yl)-7-hydroxy-3,4,12,12a-tetrahydro-1H-[1,4] oxazino [3,4-c] pyrido [2,1-f][1,2,4] triazine-6,8-dione [Example 12]”: the pEC50 in data set [1] was 7.31. It took 112 µM to reach half-maximal cytotoxicity in the data set on MDCK cells (CC50).
